In ChEMBL document CHEMBL1759969 (Bioorg Med Chem Lett, 2011):

Assays:
[1] = biological target: T1, Melatonin receptor type 1A (Homo sapiens, UniProt P48039); assay: Displacement of 2-[125I]-iodomelatonin from human MT1 receptor expressed in HEK293 cells; type: cell-based
[2] = biological target: T2, Melatonin receptor type 1B (Homo sapiens, UniProt P49286); assay: Displacement of 2-[125I]-iodomelatonin from human MT2 receptor expressed in HEK293 cells; type: cell-based
T2 sequence (P49286 whole entry): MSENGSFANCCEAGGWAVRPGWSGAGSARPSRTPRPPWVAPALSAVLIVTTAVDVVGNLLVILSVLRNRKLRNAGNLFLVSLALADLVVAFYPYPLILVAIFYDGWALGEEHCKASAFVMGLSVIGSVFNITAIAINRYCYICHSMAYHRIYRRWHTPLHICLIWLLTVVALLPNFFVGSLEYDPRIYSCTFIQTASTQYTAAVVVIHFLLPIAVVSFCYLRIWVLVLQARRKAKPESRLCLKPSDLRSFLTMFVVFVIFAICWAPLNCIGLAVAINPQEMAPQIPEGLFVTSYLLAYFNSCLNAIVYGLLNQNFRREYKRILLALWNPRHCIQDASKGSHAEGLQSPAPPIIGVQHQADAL

[3] = biological target: T1, Melatonin receptor type 1A; assay: Agonist activity at human MT1 receptor expressed in CHO cells by [35S]GTPgamma binding assay; type: functional, cell-based
[4] = biological target: T2, Melatonin receptor type 1B; assay: Agonist activity at human MT2 receptor expressed in CHO cells by [35S]GTPgamma binding assay; type: functional, cell-based
Homo sapiens = species on record: Homo sapiens; assay: Selectivity ratio of Ki for human MT1 receptor to Ki for human MT2 receptor

T1 sequence (P48039 whole entry): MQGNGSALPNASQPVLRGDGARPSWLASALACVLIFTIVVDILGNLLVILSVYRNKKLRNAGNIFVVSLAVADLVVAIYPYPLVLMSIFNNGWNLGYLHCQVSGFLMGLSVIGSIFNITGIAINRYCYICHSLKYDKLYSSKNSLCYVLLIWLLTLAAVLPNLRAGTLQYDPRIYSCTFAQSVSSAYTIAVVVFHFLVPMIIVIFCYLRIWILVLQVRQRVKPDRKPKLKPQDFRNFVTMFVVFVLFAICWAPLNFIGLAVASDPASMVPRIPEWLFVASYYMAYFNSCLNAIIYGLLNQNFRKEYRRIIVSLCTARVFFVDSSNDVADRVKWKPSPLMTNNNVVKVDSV

Structure (SMILES) | Ki [1] | Ki [2] | EC50 [3] | EC50 [4] | Ratio Ki (Homo sapiens)
COc1ccc2[nH]cc(CCNC(C)=O)c2n1 | 0.2 nM | 0.3 nM | 12 nM | 1.1 nM | 0.7
COc1ccc2c(I)cn(CCNC(C)=O)c2n1 | 16 nM | 5 nM | 32 nM | 11 nM | 3.2
COc1ccc2c(C(=O)C(F)(F)F)cn(CCNC(C)=O)c2n1 | 91 nM | 30 nM | 93 nM | 10 nM | 3
COc1ccc2ccn(CCNC(C)=O)c2n1 | 1.4 nM | 0.6 nM | 4 nM | 2.1 nM | 2.3
CNCc1cn(CCNC(C)=O)c2nc(OC)ccc12 | 8300 nM | 1090 nM | – | – | 7.6
COc1cnc2[nH]cc(CCNC(C)=O)c2c1 | – | 117 nM | – | 380 nM | –
COc1ccc2c(CN3CCCCC3)cn(CCNC(C)=O)c2n1 | 510 nM | 742 nM | – | – | 0.7
COc1ccc2c3c(n(CCNC(C)=O)c2n1)CCCC3 | 9 nM | 0.68 nM | 16 nM | 1.3 nM | 13.2
COc1ccc2c(CN3CCOCC3)cn(CCNC(C)=O)c2n1 | > 10000 nM | 550 nM | – | – | > 20
COc1ccc2c(CN3CCN(c4cccc(Cl)c4)CC3)cn(CCNC(C)=O)c2n1 | 1210 nM | 929 nM | – | – | 1.3
COc1ccc2c(CN(C)C)cn(CCNC(C)=O)c2n1 | > 10000 nM | > 10000 nM | – | – | –
COc1ccc2c(CN(C)Cc3ccccc3)cn(CCNC(C)=O)c2n1 | 10500 nM | 4010 nM | – | – | 2.6
COc1ccc2c(CN3CCC(C(=O)c4ccc(F)cc4)CC3)cn(CCNC(C)=O)c2n1 | 9490 nM | 7440 nM | – | – | 1.3
CCCC(=O)NCCn1ccc2ccc(OC)nc21 | – | 0.3 nM | – | 0.7 nM | –
CCC(=O)NCCn1ccc2ccc(OC)nc21 | 3.3 nM | 0.28 nM | 5.1 nM | 1.4 nM | 11.8
